Reference: patent US9242009B2, “Compositions and methods to treat neurodegenerative diseases” (The General Hospital Corporation, priority 2012, dated 2016)

Experiments:
[1] = test system: murine primary cortical neurons; test: Amyloid beta-induced toxicity in murine primary cortical neurons (LDH release, MTT); assay type: cell-based, mice; conditions: 24 hours incubation with Aβ1-42 at 20 μM
Experimental: FIG. 13A-B is a set of two bar graphs depicting cell viability of murine primary cortical neurons exposed to 20 μM amyloid beta (Aβ) and treated with memantine, ACS48, or S-memantine at 5, 10, or 30 μM. Cell viability was estimated by LDH release assay in the left graph and MTT assay in the right graph.

[2] = test system: murine primary cortical neurons; test: Cytotoxicity of H2S donors to murine primary cortical neurons (LDH release); assay type: cell-based, mice; conditions: 50 μM; 24 hours; without memantine
Experimental: (§1) A microtiter plate containing cells was centrifuged at 250×g for 10 minutes and the supernatant was used for LDH measurement with LDH Cytotoxicity Detection Kit (Roche). After aspirating the medium, remaining cells were washed with PBS, then, 100 μl of 1% Triton-X was added to each well, followed by incubation at 37° C. for 30 minutes. Medium and lysates were used for LDH measurement at wavelength 492 nm. Percentage of released LDH was calculated with following formula: {LDH (medium)/LDH (medium+cell)×100}. Average value of control (cells without OGD) was deducted as background.

SH-SY5Y cells [3] = test: Intracellular sulfide levels in SH-SY5Y cells (HPLC); assay type: cell-based, Human; conditions: 20 μM, SH-SY5Y
Experimental: Human neuroblastoma SH-SY5Y cells were cultured in Eagle's medium/Ham's F-12 50/50 Mix (DMEM/F12, Cellgro by Mediatech, Inc.) supplemented with 10% fetal bovine serum (FBS) and 1% penicillin/streptomycin. The cells were seeded into 96 well plates (2×10^4 cells per well) for OGD and measurements of toxicity, 6 cm dishes (5×10^5 cells per dish) for measurements of sulfide and reduced-glutathione (GSH), or 10 cm dishes (1×10^6 cells per dish) for measurements of intracellular calcium. Cell culture medium was replaced every 2 days, and the cultures were maintained at 37° C. in 95% air/5% CO2 in a humidified incubator. Cells were used after reaching 80% confluent.
Concentration of free sulfide in SH-SY5Y cells was measured using high performance liquid chromatography (HPLC) (Tokuda et al. (2012) Antioxidants & Redox Signaling). Briefly, SH-SY5Y cells were seeded into 6 cm dishes (5×10^5 cells per dish). After being 80% confluent, 20 μM H2S donor was added to the dish and incubated at 37° C. Cells were washed with ice-cold Tris-HCl (100 mM, PH 9.5, DTPA 0.1 mM) buffer, scraped, transferred to microfuge tubes, and centrifuged. MBB (10 mM in acetonitrile, 50 μl) was added to 100 μl of supernatant. After 30 minutes of incubation at room temperature in dark, 50 μl of 200 mM 5-sulfosalicylic acid (SSA) was added. After centrifugation, supernatant was analyzed by HPLC. For sulfide levels in medium, after centrifugation, supernatant was used for MBB reaction as above.
In contrast, incubation of SH-SY5Y cells with S-memantine increased intracellular sulfide level more markedly than incubation with ACS48 at all time points after addition (˜10 fold at 4 hours, P<0.001 by two-way ANOVA with Bonferroni post-test). In a separate experiment, we examined whether or not incubation with memantine itself or incubation with ACS48 and memantine would affect intracellular sulfide levels in SH-SY5Y cells.

[4] = Plasma and cerebral sulfide levels of mice after intraperitoneal administration; assay type: in vivo; conditions: 25 μmol/kg intraperitoneal, 90 minutes after administration
Excerpt: Blood was drawn from left ventricle and centrifuged to collect the plasma. After perfusion with Tris-HCl buffer via left ventricle, brain was harvested, homogenized in Tris-HCl, and centrifuged. Plasma and supernatant of brain homogenate were derivatized with MBB and analyzed by HPLC.

SH-SY5Y cells [5] = test: Oxygen-glucose deprivation (OGD) of SH-SY5Y cells, viability by LDH release, MTT and CV assays; assay type: cell-based, Human
Experimental: OGD for SH-SY5Y was performed by placing cells in a hypoxia chamber ([…] Technologies Inc.) for 15 hours, followed by 24 hours of reoxygenation as previously reported (FIG. 3A) (Serra-Pérez et al. (2008) Journal of Neurochemistry 106, 1237-1247). Briefly, medium was replaced with glucose-free RPMI 1640 with L-glutamine (Cellgro by Mediatech, Inc), deoxygenated with anaerobic gas mixture (93% N2-5% CO2-2% H2) for 30 minutes before use. Cells were then placed in a hypoxia chamber, flushed with anaerobic gas mixture (93% N2-5% CO2-2% H2) and incubated at 37° C. After 15 hours of hypoxia, medium was replaced with DMEM/F12 and incubated for 24 hours at 37° C. in 95% air/5% CO2 in a humidified incubator.
as §1
Ten μl of thiazolyl blue tetrazolium bromide solution (5 mg/ml in PH 7.4 PBS) was added to each well containing 100 μl of medium and cells, followed by incubation at 37° C. for 4 hours in the dark. Isopropanol (100 μl, 0.04 N HCl) was added to dissolve blue dye. After dissolved completely, absorbance was measured with plate-reader (Synergy 2, BioTek Instrument) at test wavelength 570 nm and reference wavelength 670 nm. Cell viability was determined by absorbance at 570 nm and reported as ratio to control cells (without OGD).
After aspirating culture medium, cells were fixed and stained by 0.5% CV in 95% (v/v) ethanol for 5 minutes, then washed by tap water several times. After taking photographs, 1% sodium dodecylsulfate solution was added to each well to elute blue dye. Absorbance was measured with plate-reader at 595 nm of wavelength. Values were shown as ratio to control (cells without OGD).

[6] = time- and dose-range studies, SH-SY5Y

For C[C@]12C[C@@H]3C[C@](C)(C1)C[C@@](NC(=O)c1ccc(-c4cssc4=S)cc1)(C3)C2 [S-memantine, N-((1r,3R,5S,7r)-3,5-dimethyladamantan-1-yl)-4-(3-thioxo-3H-1,2-dithiol-4-yl)-benzamide], the “Cell viabilities after Aβ1-42 compared with memantine” value [1] was “improved cell viabilities more markedly than did memantine”, the “Cell viabilities after Aβ1-42” value ([1]; compound 5, 10 or 30 μM) was “improved cell viabilities” and the “LDH release (cytotoxicity)” value [2] was “did not induce LDH release”. For the same molecule, the Intracellular sulfide levels (SH-SY5Y cells [3]; 37° C.) was “increased intracellular sulfide levels”, the “Intracellular sulfide level relative to incubation with ACS48” value (SH-SY5Y cells [3]; at 4 hours) was ~10 fold and the Cerebral sulfide levels [4] was “increased”. For the same molecule, the Plasma sulfide levels [4] was “increased plasma sulfide levels”, the “Cell viability after OGD (LDH release, MTT, CV assays)” value (SH-SY5Y cells [5]; 50 μM added 8 hours after the end of OGD, 15 hours OGD, 24 hours reoxygenation) was “improved the viability of SH-SY5Y cells more markedly than did addition of ACS48 or memantine” and the “Cell viability after OGD” value (SH-SY5Y cells [5]; incubation starting at any time between pre-OGD and up to 8 hours after OGD) was “improved”. The “Most effective dose to improve viability after OGD” value (SH-SY5Y cells [5]; [6]) was 50 µM and the “Most effective time point of addition after the end of OGD” value (SH-SY5Y cells [5]; [6]) was 8 h.
